In assay [1] the target is RET protein (Homo sapiens (Human), UniProt P07949). The assay can be described thus: Inhibitory activity against the kinase activity of RET protein. In kind it is biochemical. The settings on record: RET kinase domain, ATP 100 μM, reaction 30 minutes.
The target of assay [2] is ROS protein (Homo sapiens (Human), UniProt P08922). The assay can be described thus: Inhibitory activity against the kinase activity of ROS protein. In kind it is biochemical. The settings on record: ROS kinase domain, ATP 50 uM.
ROS protein, sequence (P08922 1945-2222): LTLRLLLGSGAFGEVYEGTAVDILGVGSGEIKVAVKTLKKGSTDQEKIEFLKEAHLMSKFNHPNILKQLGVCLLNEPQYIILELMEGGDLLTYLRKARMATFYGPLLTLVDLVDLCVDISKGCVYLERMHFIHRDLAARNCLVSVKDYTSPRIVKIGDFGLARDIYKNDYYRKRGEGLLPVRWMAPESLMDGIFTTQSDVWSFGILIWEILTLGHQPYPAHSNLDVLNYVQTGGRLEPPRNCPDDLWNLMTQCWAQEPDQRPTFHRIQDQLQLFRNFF
Assay [3] addresses EML4-ALK fusion protein v1 (Homo sapiens (Human), UniProt Q9UM73). The experiment in a line: Inhibitory activity against the kinase activity of EML4-ALK fusion protein (HTRF KinEASE-TK). The format is biochemical. The settings on record: ATP 100 μM, reaction 1 hour. From the text:
A recombinant retrovirus was created from expression plasmid FLAG-EML4-ALKv1/pMX-iresCD8 in which cDNA for EML4-ALK fusion protein v1 was integrated, and injected into mouse lymphoid cell line BA/F3 cells. Using a magnetic bead reagent for cell separation and a purification column (anti-CD8 monoclonal antibody immobilized on magnetic beads and a MiniMACS purification column; both are products of Miltenyi Biotec Inc.), cell surface CD8-expressing cells were purified to establish EML4-ALK fusion protein v1-expressing BA/F3 cells. From the cells, EML4-ALK fusion protein v1 was purified and subjected to kinase activity evaluation. EML4-ALK fusion protein v1 was investigated for its phosphorylation activity toward a peptide substrate by using a kinase activity detection kit (HTRF KinEASE-TK; Cisbio Inc.). […] The ATP concentration used was 100 μM.

Assay [4] deals with BA/F3 cells expressing EML4-ALK fusion protein v1. The assay can be described thus: Growth inhibitory activity against EML4-ALK fusion protein-dependent cells. In kind it is cell-based, mouse. The settings on record: Mus musculus, BaF3, 48 h, growth of EML4-ALK fusion protein v1-expressing BA/F3 cells, cultured 2 days. On the procedure: EML4-ALK fusion protein v1-expressing BA/F3 cells can grow in the absence of IL-3. In other words, they are cells that EML4-ALK fusion protein v1-dependently grow.
In a 96-well plate (Iwaki), BA/F3 cells expressing EML4-ALK fusion protein v1 were seeded at 500 cells per well in RPMI1640 medium (Invitrogen) containing 10% fetal bovine serum, followed by addition of a test compound (final concentration: 10 μM to 0.1 nM). As a negative control, DMSO used as a solvent of the test compound was added. Then, the cells were cultured under 5% CO2 at 37° C. for 2 days. A cell counting reagent (AlmarBlue; Biosource) was added, and the cells were cultured for 150 minutes, followed by measurement of fluorescence intensity with a […] (Safire; Tecan) in accordance with instructions attached to the reagent.

The test system of assay [5] is EML4-ALK fusion protein v1 expressing 3T3 cells. The experiment in a line: Antitumor test (in vivo) on EML4-ALK fusion protein v1 expressing 3T3 cells. The note with it: oral 10 mg/kg once a day for 5 days, Balb/c nude mice, EML4-ALK v1 3T3 tumor; values marked (regression). From the text:
Expression plasmid EML4-ALKv1/pMXS in which cDNA for EML4-ALK fusion protein v1 was integrated was trasfected into 3T3 fibroblast cells by the phosphate calcium method to thereby establish EML4-ALK fusion protein v1 expressing 3T3 cells. 3×10^6 cells of EML4-ALK fusion protein v1 expressing 3T3 cells suspended in PBS were inoculated subcutaneously by injection to the back of 5 weeks old male Balb/c nude mice (Charles River Japan, Inc.). After 7 days of the inoculation, the administration of test compound was initiated. The test was conducted in the solvent group and the compound group, 4 animals per group. The test compound was suspended in a solvent composed of 0.5% methylcellulose and administered orally at a dose of 10 mg/kg. Administrations were performed once a day for 5 days, and body weight and tumor size were measured every other day. Tumor volume was calculated using the following formula. [Tumor volume(mm^3)]=[Tumor major axis(mm)]×[tumor minor axis(mm)]^2×0.5
When regression of tumor volume is induced from the day of starting administration, the tumor volume on the day of starting administration and the state in which the tumor disappeared were assumed to be 0% regression and 100% regression, respectively, and the rate of regression of the test compound was calculated.

For assay [6], the system named is human non-small cell lung cancers cell line NCI-H2228 cells. The assay can be described thus: Antitumor test (in vivo) on NCI-H2228 cells. The note with it: NOD/SCID mice; for growth inhibition against NCI-H2228 cells (tumor) compared with the solvent group: oral administration, Student's t-test. From the text:
The antitumor effects on EML4-ALK fusion protein-dependent cells can also be confirmed by use of human non-small cell lung cancers cell line NCI-H2228 cells (cells derived from EML4-ALK fusion polynucleotide-positive lung cancer patients (EML4-ALK fusion protein v3-dependent cells)) in place of the EML4-ALK fusion protein v1 expressing 3T3 cells of Test Example 3, as shown below.
3×10^6 cells of NCI-H2228 cells suspended in 50% Matrigel (Invitrogen) were inoculated subcutaneously by injection to the back of 5 weeks old male NOD/SCID mice (Charles River Japan, Inc.). After 3 weeks of the inoculation, the administration of test compounds was initiated. The test was conducted in the solvent group and test compound groups, 6 animals per group. The test compounds were each dissolved in a solvent composed of 10% 1-methyl-2-pyrrolidinone (SIGMA-ALDRICH Inc.)/90% polyethylene glycol 300 (Fluka Inc.) and administered orally at a dose of 1 mg/kg. Administrations were performed once a day for 14 days, and body weight and tumor size were measured every other day. Tumor volume was calculated using the following formula. [Tumor volume(mm^3)]=[Tumor major axis(mm)]×[tumor minor axis(mm)]^2×0.5

Molecules are shown by their SMILES.

EML4-ALK fusion protein v1, sequence (Q9UM73 other isoform, or with tags, fused parts or gaps): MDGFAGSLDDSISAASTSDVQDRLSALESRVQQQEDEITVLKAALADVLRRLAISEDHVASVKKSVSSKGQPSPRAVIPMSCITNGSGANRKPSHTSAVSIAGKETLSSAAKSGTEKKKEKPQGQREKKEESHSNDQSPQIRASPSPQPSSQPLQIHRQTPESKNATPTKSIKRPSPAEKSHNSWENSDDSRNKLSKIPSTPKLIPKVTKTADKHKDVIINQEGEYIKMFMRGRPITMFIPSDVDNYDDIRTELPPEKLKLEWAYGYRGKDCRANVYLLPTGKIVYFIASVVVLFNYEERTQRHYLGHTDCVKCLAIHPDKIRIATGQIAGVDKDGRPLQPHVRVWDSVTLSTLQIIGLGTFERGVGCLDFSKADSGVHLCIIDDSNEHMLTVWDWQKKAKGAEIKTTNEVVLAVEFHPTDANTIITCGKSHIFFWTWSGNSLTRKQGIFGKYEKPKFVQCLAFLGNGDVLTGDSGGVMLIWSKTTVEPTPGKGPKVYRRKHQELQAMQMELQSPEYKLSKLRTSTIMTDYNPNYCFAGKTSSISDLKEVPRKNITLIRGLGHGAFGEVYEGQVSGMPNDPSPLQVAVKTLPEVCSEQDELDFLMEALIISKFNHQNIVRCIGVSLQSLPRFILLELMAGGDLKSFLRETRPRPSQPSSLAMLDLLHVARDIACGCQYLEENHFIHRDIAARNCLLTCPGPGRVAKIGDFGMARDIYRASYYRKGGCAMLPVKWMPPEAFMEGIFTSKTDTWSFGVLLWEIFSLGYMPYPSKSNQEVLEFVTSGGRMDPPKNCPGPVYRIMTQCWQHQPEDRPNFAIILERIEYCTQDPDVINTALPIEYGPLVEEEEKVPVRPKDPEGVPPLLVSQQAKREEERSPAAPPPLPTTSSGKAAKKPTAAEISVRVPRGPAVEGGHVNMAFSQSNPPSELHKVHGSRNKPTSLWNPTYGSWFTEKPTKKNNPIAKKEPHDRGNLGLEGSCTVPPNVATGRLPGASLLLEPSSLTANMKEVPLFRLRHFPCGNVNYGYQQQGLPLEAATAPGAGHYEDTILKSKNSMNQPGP
RET protein, sequence (P07949 724-1016): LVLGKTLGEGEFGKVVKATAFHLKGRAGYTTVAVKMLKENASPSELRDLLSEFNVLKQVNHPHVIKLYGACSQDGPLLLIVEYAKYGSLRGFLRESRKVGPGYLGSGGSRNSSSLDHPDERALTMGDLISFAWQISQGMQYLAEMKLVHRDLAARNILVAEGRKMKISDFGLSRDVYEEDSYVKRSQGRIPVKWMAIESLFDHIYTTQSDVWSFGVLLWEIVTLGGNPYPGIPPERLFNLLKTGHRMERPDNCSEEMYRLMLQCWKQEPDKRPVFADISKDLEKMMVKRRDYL

As to `CCc1nc(C(N)=O)c(Nc2ccc(N3CCC(N4CCN(C)CC4)CC3)c(OC)c2)nc1NC1CCOCC1` [Example 577], the IC50 in assay [1] stood at 3.4 nM; in assay [2], 1.9 nM.
In the case of `CC(C)c1nc(C(N)=O)c(Nc2ccc(N3CCC(N4CCN(C)CC4)CC3)cc2)nc1NC1CCOCC1` [Example 549], the IC50 in assay [3] is 2.1 nM; in assay [4], 14 nM. Also, the “rate of regression (tumor volume)” value in assay [5] is 67 (regression) %. Besides, in assay [6] (oral 1 mg/kg once a day for 14 days), the “inhibition rate of growth of tumor of NCI-H2228 cells” value worked out at 69%.
With `CCc1nc(C(N)=O)c(Nc2cccc(C)c2)nc1NCCN(C)C` [Compound Y, 5-{[2-(dimethylamino)ethyl]amino}-6-ethyl-3-[(3-methylphenyl)amino]pyrazine-2-carboxamide, reference compound], the IC50 in assay [3] and in assay [4] was above 1000 nM each time. Moreover, in assay [6], the “growth inhibition against NCI-H2228 cells (tumor) compared with the solvent group” value is on record as “no significant growth inhibition”.
`NC(=O)c1cnc(N[C@@H]2CCCC[C@@H]2N)nc1Nc1ccc(-c2ccc(N3CCOCC3)cc2)cc1` (racemic) [Compound X, rac-2-{[(1R,2S)-2-aminocyclohexyl]amino}-4-{[4′-(morpholin-4-yl)biphenyl-4-yl]amino}pyrimidine-5-carboxamide, reference compound]: the IC50 in assay [3] turned out to be 220 nM; in assay [4], 821 nM. For the same compound, in assay [6], the “growth inhibition against NCI-H2228 cells (tumor) compared with the solvent group” value is recorded as “no significant growth inhibition”.

Source of the values: patent publication US8969336B2, “Diamino heterocyclic carboxamide compound” (Astellas Pharma Inc., priority 2009, dated 2015).
